Assay results from US7754705B2, “Cationic steroid antimicrobial compositions and methods of use” (priority 2006, dated 2010).
Where two headings read alike, the source gives them in different places.

Tests used:
vaccinia virus [1] = tested on: vaccinia virus
vaccinia virus [2] = format: cell-based, vaccinia virus; human keratinocytes (HaCaT)
vaccinia virus [3] = assay: microbe, parasite or virus in culture; settings: Orthopoxvirus vaccinia, BSC-1, in Chlorocebus sabaeus, 24 h
vaccinia lipid envelope = format: binding, vaccinia virus; keratinocytes

Row | SMILES | concentration at which significant viral killing was observed / compound was effective (vaccinia virus [1]) [µM] | % Viability (vaccinia virus [1]; 5 μM) [%] | % Viability (vaccinia virus [1]; 10 μM) [%] | % Viability (vaccinia virus [1]; 25 μM) [%] | % Viability (vaccinia virus [1]; 50 μM) [%] | % Viability (vaccinia virus [1]; 100 μM) [%] | activity against vaccinia virus (vaccinia gene expression) (vaccinia virus [2]) | viability at 5 µM (vaccinia virus [3]) [%] | viability at 10 µM (vaccinia virus [3]) [%] | viability at 25 µM (vaccinia virus [3]) [%] | viability at 50 µM (vaccinia virus [3]) [%] | viability at 100 µM (vaccinia virus [3]) [%] | effectiveness in killing vaccinia virus (in words) (vaccinia virus [1]) | incorporation into vaccinia lipid envelope versus keratinocyte membrane (vaccinia lipid envelope) | % Viability (vaccinia virus [1]; 1 μM) [%]
1 | CCCCCCCCOCCCC(C)C1CCC2C3C(OCCCN)CC4CC(OCCCN)CCC4(C)C3CC(OCCCN)C12C (stereo not drawn) [CSA-7] | 5 | 0.56 | 0.00 | 0.00 | 0.00 | 0.00 | most effective | – | – | – | – | – | – | – | –
2 | CC(CCCO)C1CCC2C3C(OCCCN)CC4CC(OCCCN)CCC4(C)C3CC(OCCCN)C12C (stereo not drawn) [CSA-8] | – | 61.87 | 28.79 | 4.67 | 2.33 | 1.56 | – | – | – | – | – | – | – | – | –
3 | CC(O)[C@H]1CC[C@H]2[C@@H]3[C@H](OCCCN)C[C@@H]4C[C@H](OCCCN)CC[C@]4(C)[C@H]3C[C@H](OCCCN)[C@]12C (stereo partly drawn) [CSA-11] | – | – | – | – | – | – | – | 84.2 | 92.9 | 100 | 97.3 | 98.4 | – | – | –
4 | CCCCCCCCNCCC[C@@H](C)[C@H]1CC[C@H]2[C@@H]3[C@H](OCCCN)C[C@@H]4C[C@H](OCCCN)CC[C@]4(C)[C@H]3C[C@H](OCCCN)[C@]12C [CSA-13] | – | 37.50 | 8.82 | 3.31 | 0.00 | 0.00 | most effective | – | – | – | – | – | – | – | –
5 | CC(CCCN)C1CCC2C3C(OCCCN)CC4CC(OCCCN)CCC4(C)C3CC(OCCCN)C12C (stereo not drawn) [CSA-15] | – | 98.88 | 93.68 | 101.49 | 97.40 | 65.80 | – | – | – | – | – | – | – | – | –
6 | CCCOCCCC(C)C1CCC2C3C(OCCCN)CC4CC(OCCCN)CCC4(C)C3CC(OCCCN)C12C (stereo not drawn) [CSA-17] | – | 53.18 | 19.48 | 3.00 | 0.00 | 0.00 | – | – | – | – | – | – | – | – | –
7 | CC(CCCOS(=O)(=O)O)C1CCC2C3C(OCCCN)CC4CC(OCCCN)CCC4(C)C3CC(OCCCN)C12C (stereo not drawn) [CSA-21] | – | 100.00 | 71.76 | 40.39 | 14.12 | 4.31 | – | – | – | – | – | – | – | – | –
8 | CC(CCCOCCCN)C1CCC2C3C(OCCCN)CC4CC(OCCCN)CCC4(C)C3CC(OCCCN)C12C (stereo not drawn) [CSA-25] | – | 97.40 | 74.35 | 66.91 | 39.41 | 10.04 | – | – | – | – | – | – | – | – | –
9 | CC(CCCO)C1CCC2C3C(NC(=O)CCCCCN)CC4CC(NC(=O)CCCCCN)CCC4(C)C3CC(NC(=O)CCCCCN)C12C (stereo not drawn) [CSA-31] | – | 99.24 | 99.24 | 101.52 | 102.28 | 101.52 | – | – | – | – | – | – | little or no detectable activity | – | –
10 | CCCCCCCCNCCC[C@@H](C)[C@H]1CC[C@H]2[C@@H]3CC[C@@H]4C[C@H](OCCCN)CC[C@]4(C)[C@H]3C[C@H](OCCCN)[C@]12C [CSA-46] | – | 41.89 | 3.77 | 0.38 | 0.00 | 0.00 | most effective | – | – | – | – | – | – | – | –
11 | CC(CCCNCCCNCCCN)C1CCC2C3C(OCCCN)CC4CC(OCCCN)CCC4(C)C3CC(OCCCN)C12C (stereo not drawn) [CSA-54] | – | 103.91 | 101.12 | 95.53 | 101.12 | 95.53 | – | – | – | – | – | – | little or no detectable activity | – | –
12 | CC(CCCNC(=O)CCC(=O)c1ccc2cc(N(C)C)ccc2c1)C1CCC2C3C(OCCCN)CC4CC(OCCCN)CCC4(C)C3CC(OCCCN)C12C (stereo not drawn) [CSA-59] | – | 97.83 | 66.31 | 26.09 | 0.54 | 0.00 | – | – | – | – | – | – | – | preferentially incorporates into the vaccinia lipid envelope over the keratinocyte membrane with a high degree of selectivity | –
13 | CCCCCN(CCCCC)CCCC(C)C1CCC2C3C(OCCCN)CC4CC(OCCCN)CCC4(C)C3CC(OCCCN)C12C.Cl.Cl.Cl.Cl (stereo not drawn) [CSA-90] | – | 23.67 | 14.49 | 7.73 | 4.83 | 0.48 | – | – | – | – | – | – | – | – | 64.73
14 | CCCCCCCCN(CCCCCCCC)CCCC(C)C1CCC2C3C(OCCCN)CC4CC(OCCCN)CCC4(C)C3CC(OCCCN)C12C.Cl.Cl.Cl.Cl (stereo not drawn) [CSA-91] | – | 0.00 | 0.00 | 0.00 | 0.00 | 0.00 | – | – | – | – | – | – | most effective | – | 10.31
15 | CCCCCCCCCCCCCCCCNCCCC(C)C1CCC2C3C(OCCCN)CC4CC(OCCCN)CCC4(C)C3CC(OCCCN)C12C.Cl.Cl.Cl.Cl (stereo not drawn) [CSA-92] | – | 0.00 | 0.00 | 0.00 | 0.00 | 0.00 | – | – | – | – | – | – | most effective | – | 0.00
